# Like-named read-outs stand apart in the source and are kept apart here.
# Experiments:
# [1] = Evaporation time of 10 μL droplet on glass surface; type: physicochemical; conditions: for effect of increased amount of the compound on evaporation time of the mixture: FIG. 1; for Evaporation time: 10 μL droplet, glass surface, room temperature; for Evaporation time / Relative Evaporation Time: F4H5 / CF3—(CF2)3—CH(CH3)—(CH2)2—CH3 mixtures; for Relative Evaporation Time: relative to Sample 1
# Experimental: The evaporation time of mixtures of the semifluorinated alkane CF3(CF2)3(CH2)4CH3(F4H5) and CF3—(CF2)3—CH(CH3)—(CH2)2—CH3 was evaluated. A droplet of 10 μL volume of each mixture was placed on a glass surface at room temperature. Time until evaporation was recorded by video-monitoring.
# The evaporation time of mixtures of the semifluorinated alkane CF3(CF2)5(CH2)7CH3(F6H8) and CF3(CF2)5—CH(CH3)—(CH2)5—CH3 was evaluated analogously.
# [2] = Refractive index of the mixtures; type: physicochemical; conditions: mixture with the 1-perfluoroalkylalkane; FIG. 2, FIG. 3
# Experimental: In a particularly preferred embodiment, the refractive index of the liquid solution is in the range of from about 1.30 to about 1.35 at 20° C., as determined by refractometer.
# The refractive index of the mixtures was also determined. For topically applied ophthalmic compositions, the refractive index of the composition should preferably be similar, or adapted to that of the eye and lens, for instance as close to that of physiological tear fluid as possible. If the refractive index of a composition is not similar, when applied to the surface of the eye, a patient may experience blurring or impaired vision. It is observed, that the amount of the compound CF3(CF2)5—CH(CH3)—(CH2)5—CH3 or has an effect on refractive index.
# [3] = Differential Scanning Calorimetry of mixtures
# Experimental: Differential Scanning Calorimetry (DSC 1, Mettler Toledo, Greifensee, Switzerland) is used to characterize structure and phase behavior of mixtures of CF3(CF2)5—CH(CH3)—(CH2)5—CH3 and CF3(CF2)5(CH2)7CH3. DSC was employed to obtain data on transitions by temperature rising scans with heating rate of 1° C./min. Sealed standard aluminum crucibles (40 μl, Mettler Toledo) were used.
# Rabbit corneas = tested on: Rabbit corneas
# Experimental: Anim., 2008 (36) p 25-32; and N. Schrage et al, Graefes Arch Clin Exp Ophthalmol 2012 (250), 1330-1340).
# Method. Rabbit corneas were obtained and placed in an artificial anterior ocular chamber which was gently filled with serum-free minimal essential medium (Eagle's MEM) containing Earle's salts and HEPES buffer for nutrition. The medium was constantly replenished by a micropump to imitate the physiological condition of the eye. The culture chambers were held at 32° C. under normal air without supplementary CO2 and >95% relative humidity. Five corneas per test substance (n=5) were used except for the positive control with which two corneas (n=2) were tested.
# After 12 h of stabilization in the culture chamber, the corneas were evaluated by microscopy and corneas with intact epithelium and without opacities were selected. Four small abrasions (2.3-4.3 mm^2) were applied to the surface of the selected corneas with a cornea drill. All defects were monitored by fluorescein sodium staining (0.17% aq. solution) and microscopy.
# The test substances were administered one hour after induction of the corneal erosion and were applied six times daily onto the apex of the corneas (30-50 μL every four hours). A soft-tipped cannula, with continuous suction was placed on the lowest part of the corneoscleral region within the culturing chamber to remove any excess fluid. Experiments were terminated after 3 days of application. Biomicroscopic images of the corneas were taken daily to document the corneal healing process using a phase-contrast microscope integrated camera (KY-F1030U, JVC, (Bad Vilbel, Del.) mounted on a Z16 APO Microscope (Wetzlar, Del.)). All defects were monitored by fluorescein sodium stains (0.17% aq. solution) with yellow green fluorescence indicating the areas of epithelial defects. Erosion sizes were determined using a software tool of the microscope (DISKUS). At the end of the 3 days, the experiment was terminated and all corneas were fixed in 3.7% formaldehyde and stained with a hematoxylin-eosin dye for microscopic evaluation. To monitor the metabolic activity of the cornea, glucose and lactate concentrations were photometrically quantified in the outflow medium from the artificial anterior chambers.
# [4] = DSC heating rate 1° C./min, mixture with CF3(CF2)5(CH2)7CH3
compound,measurement,setting,value
"CCCC(C)C(F)(F)C(F)(F)C(F)(F)C(F)(F)F (stereo not shown) [CF3—(CF2)3—CH(CH3)—(CH2)2—CH3, 2-Perfluorobutyl-pentane]",effect of increased amount of the compound on evaporation time of the mixture,[1],increase the evaporation time
same,effect of increased content on refractive index of the mixture,[2],increasing refractive index value
"CCCCCCC(C)C(F)(F)C(F)(F)C(F)(F)C(F)(F)C(F)(F)C(F)(F)F (stereo not shown) [CF3—(CF2)5—CH(CH3)—(CH2)5—CH3, 2-Perfluorohexyl-octane]",effect of increased amount of the compound on evaporation time of the mixture,[1],significantly decreases the evaporation time
same,effect of increased content on refractive index of the mixture,[2],increasing refractive index value
same,effect on melting enthalpy,[3]; presence in a mixture of F6H8,decreased
same,effect on melting temperature,[3]; presence in a mixture of F6H8,significant reduction
"CCCCCC(F)(F)C(F)(F)C(F)(F)C(F)(F)F [Sample 1, CF3(CF2)3(CH2)4CH3]",Evaporation time,[1],304 s
same,Relative Evaporation Time,[1],1.00
"CCCC(C)C(F)(F)C(F)(F)C(F)(F)C(F)(F)F (stereo not shown) [Sample 3, CF3—(CF2)3—CH(CH3)—(CH2)2—CH3]",Evaporation time,[1],322 s
same,Relative Evaporation Time,[1],1.064
CF3(CF2)5(CH2)7CH3 [0 wt % CF3—(CF2)5—CH(CH3)—(CH2)5—CH3],Low temperature transition Endset,[3]; [4],−38.32 °C
same,Low temperature transition Onset,[3]; [4],−45.47 °C
same,Low temperature transition Peak,[3]; [4],−40.37 °C
same,Low temperature transition ΔH,[3]; [4],-0.69 J/g
benzalkonium chloride [0.01% BAC],course of induced epithelial lesions,Rabbit corneas,progressive increase of the induced epithelial lesions
same,"Corneal Erosion Size, Mean",Rabbit corneas; Day 0,11.57 mm^2
same,"Corneal Erosion Size, Mean","Rabbit corneas; Day 1, applied six times daily 30-50 μL",5.91 mm^2
same,"Corneal Erosion Size, Mean","Rabbit corneas; Day 2, applied six times daily 30-50 μL",8.74 mm^2
same,"Corneal Erosion Size, Mean","Rabbit corneas; Day 3, applied six times daily 30-50 μL",17.46 mm^2

# From patent US11154513B2, “Semifluorinated compounds” (NOVALIQ GMBH, priority 2015, dated 2021)
